These results are taken from patent US20240083885A1, “COMPOSITIONS AND METHODS FOR INHIBITING M PRO PROTEASE ACTIVITY AND FOR PREVENTING AND TREATING SARS-COV-2 INFECTION” (priority 2020, published 2024).

The first assay deals with SARS-CoV-2 M^pro (Severe acute respiratory syndrome coronavirus 2 (2019-nCoV) (SARS-CoV-2), UniProt P0DTD1). Kind of assay: biochemical. To be noted: IC50 against SARS-CoV-2 M^pro.
As to `C[C@H](NC(=O)C(c1cccnc1)N(C(=O)c1ccco1)c1ccc(-c2ccccc2)cc1)c1ccccc1` (single isomer, unassigned) [Compound 23S], the IC50 is > 10 µM. As for `C[C@@H](CCc1ccccc1)NC(=O)[C@H](c1cccnc1)N(C(=O)C(Cl)Cl)c1ccc(-c2ccccc2)cc1` [Jun9-90-4S, N-([1,1′-biphenyl]-4-yl)-2,2-dichloro-N-((S)-2-oxo-2-(((S)-4-phenylbutan-2-yl)amino)-1-(pyridin-3-yl)ethyl)acetamide], the IC50 was > 20 µM. Still for that read-out and setting: the same measure for `C[C@H](NC(=O)[C@H](c1cccnc1)N(C(=O)C(Cl)Cl)c1ccc(-c2ccccc2)cc1)c1ccccc1` [Jun9-62-2S, N-([1,1′-biphenyl]-4-yl)-2,2-dichloro-N-((S)-2-oxo-2-(((S)-1-phenylethyl)amino)-1-(pyridin-3-yl)ethyl)acetamide]: > 20 µM.

The same assay, now with this note: SARS-COV-2 main protease enzymatic inhibition IC50.
On to `C[C@H](NC(=O)C(c1cccnc1)N(C(=O)c1ccco1)c1ccc(-c2cnn(C)c2)cc1)c1ccccc1` (stereo partly shown) [Jun8-91-6], for which 37.3 µM corresponded to half-maximal inhibition (IC50).

The assay is the same for the next values; noted with them: SARS-CoV-2 M^pro IC50 (μM).
As for `C[C@H](NC(=O)C(c1cccnc1)N(C(=O)c1ccco1)c1ccc(-c2ccccc2)cc1)c1ccccc1` (single isomer, unassigned) [Compound 23S], the IC50 is > 10 µM.

The assay is the same for the next values; noted with them: read-out: IC50 against SARS-CoV-2 M^pro.
Turning to `C=C(Cl)C(=O)N(c1ccc(-c2ccccc2)cc1)C(C(=O)N[C@@H](C)c1ccccc1)c1cccnc1` (stereo partly drawn) [Jun10-38-2, N-{[1,1′-biphenyl]-4-yl}-2-chloro-N-({[(1S)-1-phenylethyl]carbamoyl}(pyridin-3-yl)methyl)prop-2-enamide], the half-maximal inhibitory concentration (IC50) was 4.22 µM.

`C[C@H](NC(=O)[C@H](c1cccnc1)N(C(=O)C(Cl)(Br)Br)c1ccc(-c2ccccc2)cc1)c1ccccc1` [Jun9-89-4S, N-([1,1′-biphenyl]-4-yl)-2,2-dibromo-2-chloro-N-((S)-2-oxo-2-(((S)-1-phenylethyl)amino)-1-(pyridin-3-yl)ethyl)acetamide]: the IC50 came out at 9.04 µM.

Still in this assay, the particulars now being: read-out: SARS-COV-2 main protease enzymatic inhibition IC50.
Take `O=C(NC1CCCCC1)C(c1cccnc1)N(C(=O)c1ccco1)c1ccc(-c2ccccc2)cc1` (stereo not shown) [Jun9-3-3]: the IC50 is 2.68 µM.

Regarding `C[C@H](NC(=O)C(c1cccnc1)N(C(=O)c1ccco1)c1ccc(-c2ccccn2)cc1)c1ccccc1` (stereo partly shown) [Jun9-6-4], the IC50 turned out to be 1.81 µM.

`C[C@H](NC(=O)C(c1cccnc1)N(C(=O)c1ccco1)c1ccc(-c2ccco2)cc1)c1ccccc1` (stereo partly shown) [Jun8-91-5]: the IC50 amounted to 2.54 µM. `C[C@H](NC(=O)C(c1cccnc1)N(C(=O)c1ccco1)c1ccc(Cc2ccccc2)cc1)c1ccccc1` (stereo partly shown) [Jun8-92-4]: the IC50 was 35.1 µM.

In the case of `COc1ccc(NC(=O)C(c2cccnc2)N(C(=O)c2ccco2)c2ccc(C(C)(C)C)cc2)cc1` (stereo not shown) [Jun9-88-4], the IC50 was 7.49 µM. Take `CC(C)NC(=O)C(c1cccnc1)N(C(=O)c1ccco1)c1ccc(C(C)(C)C)cc1` (stereo not shown) [Jun8-88-1]: the IC50 came to 5.37 µM. With `C[C@H](NC(=O)C(c1cccnc1)N(C(=O)c1cnco1)c1ccc(-c2ccccc2)cc1)c1ccccc1` (stereo partly shown) [Jun8-92-2], the IC50 was determined as 4.99 µM. On the same count and under the same terms, with `O=C(NC1CCCC1)C(c1cccnc1)N(C(=O)c1c[nH]cn1)c1ccc(-c2ccccc2)cc1` (stereo not shown) [Jun9-3-5] the figure was 7.27 µM; with `C[C@H](NC(=O)C(c1cccnc1)N(C(=O)c1ccco1)c1ccc(C2CCCCC2)cc1)c1ccccc1` (stereo partly shown) [Jun8-66-1], 0.51 µM; with `O=C(NC1CCCCC1)C(c1cccnc1)N(C(=O)c1c[nH]cn1)c1ccc(-c2ccccc2)cc1` (stereo not shown) [Jun9-4-2], 5.82 µM. Same read-out and setting: with `CC(C)(C)NC(=O)C(c1cnccn1)N(C(=O)c1ccco1)c1ccc(C(C)(C)C)cc1` (stereo not shown) [Jun9-17-2] the figure was 4.93 µM. For `O=C(NCC(c1ccccc1)c1ccccc1)C(c1cccnc1)N(C(=O)c1ccco1)c1ccc(-c2ccccc2)cc1` (stereo not shown) [Jun9-5-3], the IC50 worked out at 1.48 µM.

For the molecule `C[C@H](NC(=O)C(c1cccnc1)N(C(=O)c1ccco1)c1ccc(N2CCCCC2)cc1)c1ccccc1` (stereo partly shown) [Jun8-97-1], the IC50 is 5.46 µM. Regarding `C[C@H](NC(=O)C(c1cccnc1)N(C(=O)c1ccco1)c1ccc(OC(C)(C)C)cc1)c1ccccc1` (stereo partly shown) [Jun9-5-4], the IC50 is 21.9 µM. The same measure, in the same setting: the same measure for `CC(C)(C)c1ccc(N(C(=O)c2ccco2)C(C(=O)NCn2nnc3ccccc32)c2cccnc2)cc1` (stereo not shown) [Jun8-74-1]: 8.13 µM.
